In the NIST ThermoML archive (doi:10.1021/je800571y):

Assay: xn = mol fraction of the nth substance listed
Settings: 101 kPa, Liquid

CCC(C)=O [butanone] + CCC(C)O
Settings	mass density, 293.15 K [kg/m3]	mass density, 298.15 K [kg/m3]	mass density, 303.15 K [kg/m3]	mass density, 308.15 K [kg/m3]	mass density, 313.15 K [kg/m3]	viscosity, 293.15 K [mPa·s]	viscosity, 298.15 K [mPa·s]	viscosity, 303.15 K [mPa·s]	viscosity, 308.15 K [mPa·s]	viscosity, 313.15 K [mPa·s]
x1 = 0.0684	806.36	802.16	798.67	793.88	789.68	2.91	2.429	2.037	1.692	1.499
x1 = 0.1365	806.25	801.98	798.39	793.58	789.29	2.34	2.007	1.649	1.339	1.228
x1 = 0.2044	806.14	801.79	798.1	793.28	788.9	1.87	1.613	1.352	1.054	1.003
x1 = 0.2721	806.03	801.61	797.82	792.98	788.51	1.491	1.299	1.074	0.8161	0.8187
x1 = 0.3395	805.92	801.43	797.54	792.68	788.13	1.183	1.051	0.8484	0.6282	0.6806
x1 = 0.4066	805.81	801.25	797.26	792.39	787.74	0.9558	0.8537	0.6826	0.5076	0.5709
x1 = 0.4735	805.71	801.07	796.98	792.09	787.36	0.7693	0.687	0.5613	0.4126	0.4786
x1 = 0.5402	805.61	800.9	796.71	791.8	786.97	0.6236	0.56	0.4526	0.3601	0.4206
x1 = 0.6066	805.5	800.72	796.43	791.51	786.59	0.5287	0.48	0.3944	0.326	0.3681
x1 = 0.6727	805.4	800.55	796.16	791.22	786.21	0.4645	0.4282	0.3468	0.3051	0.3429
x1 = 0.7387	805.3	800.38	795.89	790.93	785.83	0.4412	0.3922	0.3077	0.309	0.3191
x1 = 0.8044	805.21	800.1	795.62	790.64	785.45	0.4486	0.362	0.3031	0.3112	0.2915
x1 = 0.8698	805.11	800.04	795.35	790.35	785.07	0.4468	0.3482	0.3071	0.3186	0.2805
x1 = 0.935	805.01	799.87	795.08	790.06	784.7	0.42	0.3	0.2786	0.2966	0.2718
x1 = 1	804.92	799.7	794.81	789.78	784.32	0.3956	0.2828	0.2666	0.2601	0.2545

CCC(C)=O [butanone] + CC(C)CO
Settings	mass density, 293.15 K [kg/m3]	mass density, 298.15 K [kg/m3]	mass density, 303.15 K [kg/m3]	mass density, 308.15 K [kg/m3]	mass density, 313.15 K [kg/m3]	viscosity, 293.15 K [mPa·s]	viscosity, 298.15 K [mPa·s]	viscosity, 303.15 K [mPa·s]	viscosity, 308.15 K [mPa·s]	viscosity, 313.15 K [mPa·s]
x1 = 0.0684	801.9	797.93	794.21	790.04	786.54	3.138	2.611	2.24	1.913	1.625
x1 = 0.1365	802.11	798.06	794.25	790.03	786.39	2.429	2.054	1.78	1.534	1.33
x1 = 0.2044	802.32	798.18	794.29	790	786.22	1.862	1.566	1.404	1.193	1.074
x1 = 0.2721	802.52	798.29	794.32	789.98	786.06	1.426	1.206	1.104	0.9579	0.8538
x1 = 0.3395	802.72	798.41	794.36	789.95	785.89	1.111	0.9449	0.8637	0.7612	0.6894
x1 = 0.4066	802.92	798.52	794.39	789.92	785.73	0.8561	0.7513	0.676	0.6222	0.5674
x1 = 0.4735	803.13	798.63	794.42	789.89	785.56	0.7002	0.607	0.5418	0.5176	0.46
x1 = 0.5402	803.33	798.75	794.46	789.87	785.4	0.6142	0.5305	0.4663	0.4456	0.3948
x1 = 0.6066	803.54	798.87	794.49	789.85	785.23	0.538	0.4883	0.4135	0.4102	0.34
x1 = 0.6727	803.75	798.99	794.53	789.83	785.08	0.5271	0.4556	0.3743	0.3752	0.3138
x1 = 0.7387	803.97	799.12	794.58	789.82	784.92	0.5071	0.4444	0.3713	0.3573	0.2909
x1 = 0.8044	804.2	799.25	794.63	789.81	784.77	0.5079	0.4189	0.3607	0.3498	0.2754
x1 = 0.8698	804.43	799.4	794.68	789.8	784.62	0.4996	0.4217	0.3443	0.3334	0.28
x1 = 0.935	804.67	799.54	794.74	789.79	784.47	0.4722	0.3617	0.3135	0.3005	0.2769
x1 = 1	804.92	799.7	794.81	789.78	784.32	0.3956	0.2828	0.2666	0.2601	0.2545

CCC(C)(C)O [2-methylbutan-2-ol] + CCC(C)=O
Settings	mass density, 293.15 K [kg/m3]	mass density, 298.15 K [kg/m3]	mass density, 303.15 K [kg/m3]	mass density, 308.15 K [kg/m3]	mass density, 313.15 K [kg/m3]	viscosity, 293.15 K [mPa·s]	viscosity, 298.15 K [mPa·s]	viscosity, 303.15 K [mPa·s]	viscosity, 308.15 K [mPa·s]	viscosity, 313.15 K [mPa·s]
x2 = 0	809.61	805.01	800.41	795.81	791.21	5.108	4.474	3.909	3.387	2.909
x2 = 0.0803	809.22	804.57	799.94	795.3	790.63	3.81	3.35	2.9	2.521	2.26
x2 = 0.1583	808.84	804.15	799.49	794.82	790.09	2.862	2.521	2.14	1.905	1.7
x2 = 0.2341	808.48	803.74	799.06	794.36	789.57	2.105	1.85	1.53	1.421	1.287
x2 = 0.3077	808.13	803.35	798.85	793.92	789.06	1.558	1.37	1.09	1.103	0.9819
x2 = 0.3794	807.79	802.97	798.25	793.49	788.57	1.15	1.054	–	0.84	0.7418
x2 = 0.449	807.47	802.6	797.86	793.07	788.09	0.842	0.8221	0.6863	0.7188	0.5869
x2 = 0.5168	807.16	802.24	797.48	792.67	787.63	0.6725	0.6579	0.5601	0.5865	0.4801
x2 = 0.5828	806.85	801.89	796.12	792.27	787.18	0.5515	0.5913	0.5201	0.5202	0.4017
x2 = 0.6471	806.56	801.56	796.77	791.89	786.74	0.4986	0.5219	0.52	0.4801	0.3511
x2 = 0.7097	806.27	801.23	796.43	791.52	786.32	0.4935	0.4894	0.48	0.4507	–
x2 = 0.7707	805.99	800.91	796.08	791.15	785.9	0.4482	0.4437	0.4801	0.4505	0.323
x2 = 0.8302	805.71	800.6	795.75	790.79	785.49	0.4457	0.4344	0.4802	0.4503	0.3001
x2 = 0.8882	805.45	800.29	795.42	790.44	785.09	0.4464	0.3813	0.4402	0.4012	0.2999
x2 = 0.9448	805.18	799.99	795.11	790.1	784.7	0.4338	0.3142	0.3601	0.32	0.2997
